{
  "source": "patent US6527759B1",
  "about": "“Ultrasound assembly for use with light activated drugs” (Ekos Corporation, priority 1995, dated 2003)",
  "key": {"[1]": {"test": "Relative efficiency of bile salts as co-solubilizers for SnEt2 in MCT oil, egg phospholipids and ethanol (Example 6)", "format": "physicochemical", "conditions": "egg phospholipids, ethanol", "protocol": "(§1) Several emulsions are prepared as described above. In 5 ml glass tubes, medium chain length oil known as MCT oil (Miglyol 801, Hüls America, Piscataway, N.J.) is combined with 10 mg/gm SnEt2 plus excipients as described above. Certain emulsions also included additional excipients in the following concentrations: ethanol at […]; egg phospholipids at 75 mg/gm oil; and sodium cholate at 10 mg/gm oil. After incubating for 30 minutes at 55° C., the tubes stand overnight at room temperature (19°-22° C.). The tubes arc centrifuged to remove bulk precipitates, and supernatants are filtered through 0.45 μm nylon membrane to remove any undissolved drug. Aliquots of filtrate are then diluted in chloroform:isopropyl alcohol (1:1) for spectrophotometric determination of drug concentration (absorbance at 662 nm). Reference standards are prepared with known concentrations of SnEt2 in the same solvent.\nThis example illustrates relative efficiencies of several bile salts. Mixtures of MCT oil, egg phospholipids, ethanol, and SnEt2 are incubated with different bile salts, all at 4.6 mM^1, under the same conditions described above. […] Cholic acid lacks solubilizing action in the oil."}, "[2]": {"test": "Drug solubility in oil: SnEt2 in MCT oil with excipient combinations (Example 5)", "format": "physicochemical", "conditions": "emulsion with excipients vs MCT oil alone", "protocol": "as §1\nThe concentration of SnEt2 in each of the emulsions is illustrated in Table 2. As illustrated, the concentration of SnEt2 in the emulsion can be more than ten times the concentration in MCT oil alone."}},
  "data": [
    {"molecule": "CCOC(=O)C1=Cc2c3nc(cc4nc(cc5[n-]c(cc6[n-]c2c(C)c6CC)c(C)c5CC)C(C)=C4CC)[C@@H](C)[C@]13CC.[Cl-].[Cl-].[Sn]", "note": "(racemic) [SnEt2, tin ethyl etiopurpurin]", "values": [
      {"measurement": "SnEt2 Concentration", "setting": "[1]; bile compound: Cholic acid, 4.6 mM", "value": 1.33, "unit": "mg/gm oil"},
      {"measurement": "SnEt2 Concentration", "setting": "[1]; bile compound: Na Tauracholate, 4.6 mM", "value": 1.13, "unit": "mg/gm oil"},
      {"measurement": "SnEt2 Concentration", "setting": "[1]; bile compound: Na cholate, 4.6 mM", "value": 3.70, "unit": "mg/gm oil"},
      {"measurement": "SnEt2 Concentration", "setting": "[1]; bile compound: Na deoxycholate, 4.6 mM", "value": 2.31, "unit": "mg/gm oil"},
      {"measurement": "SnEt2 Concentration", "setting": "[1]; bile compound: Na glycocholate, 4.6 mM", "value": 2.22, "unit": "mg/gm oil"},
      {"measurement": "SnEt2 Concentration", "setting": "[1]; bile compound: None", "value": 1.26, "unit": "mg/gm oil"},
      {"measurement": "concentration of SnEt2 in the emulsion relative to the concentration in MCT oil alone", "setting": "[2]", "value": "more than ten"}
    ]}
  ]
}
